Tested on: K98450-129-R-PDC complex spheroid growth, percent test/control
Assay: Anticancer human tumor K98450-129-R-PDC patient-derived colon adenocarcinoma cell line growth inhibition [RAS]
Conditions: for viability, T/C: stronger effect = lower value; active = viability on the fitted dose curve at most 10% of control; inactive = the rest
Method in brief: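 Agents were tested in combination matrices in half-log decrements from a top concentration at or near clinical Cmax (10 microM if undetermined). Targets were multi-cell spheroids of tumour lines plus HUVEC and MSC stromal cells.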
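Also: spheroids exposed to agents for seven days before the viability readout.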
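For viability, T/C in this document: luminescence used as a proxy for viable cell amount.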

C=CC(=O)N1CCN(c2nc(OCC3CCCN3C)nc3c(F)c(-c4nc(N)cc(C)c4C(F)(F)F)c(Cl)cc23)C(C)C1 (stereo not drawn)
144 nM [middle of 4 runs]: IC50 (curve of compound)
148 nM [middle of 8 runs]: IC50 (compound alone, run of 06/10/2024)
inactive: viability, T/C (compound 0.00316 µM) 97.9% [middle of 12 runs] | viability, T/C (compound 0.01 µM, compound 0.0316 µM) 70.9% | viability, T/C (compound 0.01 µM, compound 0.1 µM) 59.3% | viability, T/C (compound 0.01 µM, compound 0.316 µM) 39.6% | viability, T/C (compound 0.01 µM, compound 1 µM) 29% | viability, T/C (compound 0.0316 µM, compound 0.00316 µM) 71.2% | viability, T/C (compound 0.0316 µM, compound 0.01 µM) 65.5% | viability, T/C (compound 0.0316 µM, compound 0.1 µM) 51.4% | viability, T/C (compound 0.0316 µM, compound 0.316 µM) 42.2% | viability, T/C (compound 0.0316 µM, compound 1 µM) 28.1% | viability, T/C (compound 0.0316 µM) 71.5% [middle of 13 runs] | viability, T/C (compound 0.1 µM, compound 0.00316 µM) 54.4% | viability, T/C (compound 0.1 µM, compound 0.01 µM) 52.5% | viability, T/C (compound 0.1 µM, compound 0.0316 µM) 56.5% | viability, T/C (compound 0.1 µM, compound 0.316 µM) 41.4% | viability, T/C (compound 0.1 µM, compound 1 µM) 30.8% | viability, T/C (compound 0.1 µM) 53.1% [middle of 13 runs] | viability, T/C (compound 0.316 µM, compound 0.00316 µM) 40.9% | viability, T/C (compound 0.316 µM, compound 0.01 µM) 38.6% | viability, T/C (compound 0.316 µM, compound 0.0316 µM) 43.2% | viability, T/C (compound 0.316 µM, compound 0.1 µM) 38.7% | viability, T/C (compound 0.316 µM, compound 1 µM) 31.3% | viability, T/C (compound 0.316 µM) 40.2% [middle of 13 runs] | viability, T/C (compound 1 µM, compound 0.00316 µM) 31.1% | viability, T/C (compound 1 µM, compound 0.01 µM) 35.5% | viability, T/C (compound 1 µM, compound 0.0316 µM) 31.5% | viability, T/C (compound 1 µM, compound 0.1 µM) 30.9% | viability, T/C (compound 1 µM, compound 0.316 µM) 33.1% | viability, T/C (compound 1 µM) 34% [middle of 13 runs]

Cc1nc(N2CCC3(CC2)COC(C)C3N)c(CO)nc1Sc1ccnc(N)c1Cl (stereo not drawn) + CCn1c(-c2cc(N3CCN(C)CC3)cnc2C(C)OC)c2c3cc(ccc31)-c1csc(n1)CC(NC(=O)C1CC1C)C(=O)N1CCCC(N1)C(=O)OCC(C)(C)C2
inactive: viability, T/C (second compound 0.000949 µM, first compound 0.0316 µM) 99.3% | viability, T/C (second compound 0.000949 µM, first compound 0.1 µM) 71.3% | viability, T/C (second compound 0.000949 µM, first compound 0.316 µM) 80.2% | viability, T/C (second compound 0.000949 µM, first compound 1 µM) 55.4% | viability, T/C (second compound 0.000949 µM, first compound 3.16 µM) 35.8% | viability, T/C (second compound 0.000949 µM, first compound 10 µM) 16.7% | viability, T/C (second compound 0.003 µM, first compound 0.0316 µM) 89% | viability, T/C (second compound 0.003 µM, first compound 0.1 µM) 64.3% | viability, T/C (second compound 0.003 µM, first compound 0.316 µM) 61.8% | viability, T/C (second compound 0.003 µM, first compound 1 µM) 51.8% | viability, T/C (second compound 0.003 µM, first compound 3.16 µM) 22% | viability, T/C (second compound 0.003 µM, first compound 10 µM) 11% | viability, T/C (second compound 0.00949 µM, first compound 0.0316 µM) 64.3% | viability, T/C (second compound 0.00949 µM, first compound 0.1 µM) 53.4% | viability, T/C (second compound 0.00949 µM, first compound 0.316 µM) 48.2% | viability, T/C (second compound 0.00949 µM, first compound 1 µM) 19.5% | viability, T/C (second compound 0.03 µM, first compound 0.0316 µM) 38.6% | viability, T/C (second compound 0.03 µM, first compound 0.1 µM) 39.2% | viability, T/C (second compound 0.03 µM, first compound 0.316 µM) 14.5% | viability, T/C (second compound 0.0949 µM, first compound 0.0316 µM) 15.2% | viability, T/C (second compound 0.0949 µM, first compound 0.1 µM) 13.1% | viability, T/C (second compound 0.0949 µM, first compound 0.316 µM) 10.9% | viability, T/C (second compound 0.3 µM, first compound 0.0316 µM) 10.7% | viability, T/C (second compound 0.3 µM, first compound 0.1 µM) 11.6%
644 nM: IC50 (curve of first compound, second compound 0.003 µM)
active: viability, T/C (second compound 0.00949 µM, first compound 3.16 µM) 8.78% | viability, T/C (second compound 0.00949 µM, first compound 10 µM) 7.55% | viability, T/C (second compound 0.03 µM, first compound 1 µM) 8.49% | viability, T/C (second compound 0.03 µM, first compound 3.16 µM) 8.08% | viability, T/C (second compound 0.03 µM, first compound 10 µM) 6.16% | viability, T/C (second compound 0.0949 µM, first compound 1 µM) 9.07% | viability, T/C (second compound 0.0949 µM, first compound 3.16 µM) 6.17% | viability, T/C (second compound 0.0949 µM, first compound 10 µM) 4% | viability, T/C (second compound 0.3 µM, first compound 0.316 µM) 9.12% | viability, T/C (second compound 0.3 µM, first compound 1 µM) 7.56% | viability, T/C (second compound 0.3 µM, first compound 3.16 µM) 6.68% | viability, T/C (second compound 0.3 µM, first compound 10 µM) 5.63%
1400 nM: IC50 (curve of first compound, second compound 0.000949 µM)
< 31.6 nM: IC50 (curve of first compound, second compound 0.03 µM) | IC50 (curve of first compound, second compound 0.0949 µM) | IC50 (curve of first compound, second compound 0.3 µM)
224 nM: IC50 (curve of first compound, second compound 0.00949 µM)

From PubChem BioAssay AID2060891 (Molecular Pharmacology Branch, DTP, NCI, 2025)
